Earlier results on 1 compound are cited in patent publication US6974685B2, “High production method of prenyl alcohol using saccharomyces cells” (Toyota Jidosha Kabushiki Kaisha 1, priority 2000, dated 2005).

SMILES strings stand for the structures.

For the data set, the system named is erg mutant of Saccharoinyces cerevisiae. To be noted: Curr. Genet., 18, 41-46 (1990).

As for `CC(C)=CCCC(C)=CCCC(C)=CCO` [FOH, farnesol], the farnesol production is reported as 1 mg/L.
